This data set is described as follows: Solubility test: amount of cyclohexanol (CHA) added until the varnish became clouded. It counts as physicochemical. As to conditions: varnish of arylsulfonic acid compound with PTA (0.5 molar equivalents; 1.0 for NSO-2) in 1 g DMI, solid content 7.0 wt %; amount of CHA when the varnish became clouded. The procedure: The arylsulfonic acid compounds obtained in the above Examples 1 to 4 and Comparative Example 1 were subjected to a solubility test in solvent according to the following procedure.
The respective arylsulfonic acid compounds obtained in Examples 1 to 4 and 0.5 molar equivalents of PTA, relative to the compound, were dissolved in 1 g of 1,3-dimethyl-2-imidazolidinone (hereinafter abbreviated as DMI) so that the solid content was set at 7.0 wt %, thereby preparing varnishes.
Cyclohexanol (hereinafter abbreviated as CHA) was added to the resulting varnish to determine, as an index for solubility, an amount of CHA at the time when the varnish became clouded.
NSO-2 obtained in Comparative Example 1 and 1.0 molar equivalent of PTA, relative to NSO-2, were dissolved in 1 g of DMI so that the solid content was set at 7.0 wt %, thereby preparing a varnish.
CHA was added to the resulting varnish to determine, as an index for solubility, an amount of CHA at the time when the varnish became clouded.

SMILES strings stand for the structures.

For the molecule `N#Cc1c(F)c(F)c(Oc2cc(S(=O)(=O)O)cc3cc(S(=O)(=O)O)ccc23)c(F)c1F` [Example 4FNS-2, Cyanoperfluorotoluenesulfonic acid compound], the “Amount of dissolution in CHA” value is >10 g.

Consider `O=S(=O)(O)c1ccc2c(Oc3c(F)c(F)c(C(F)(F)F)c(F)c3F)cc(S(=O)(=O)O)cc2c1` [Example 7FNS-1, Perfluorotoluene naphthalenesulfonic acid compound], for which the “Amount of dissolution in CHA” value is >10 g.

`O=S(=O)(O)c1ccc2c(Oc3c(F)c(F)c(-c4c(F)c(F)c(Oc5cc(S(=O)(=O)O)cc6cc(S(=O)(=O)O)ccc56)c(F)c4F)c(F)c3F)cc(S(=O)(=O)O)cc2c1` [NSO-2, Naphthalenedisulfonic acid compound, reference compound]: the “Amount of dissolution in CHA” value is on record as 3.3 g.

For the molecule `O=S(=O)(O)c1ccc2c(Oc3c(F)c(F)c(C(F)(F)C(F)=C(F)F)c(F)c3F)cc(S(=O)(=O)O)cc2c1` [Example 9FNS-1, Perfluoroallylbenzene naphthalenesulfonic acid compound], the “Amount of dissolution in CHA” value is listed as >10 g.

Regarding `N#Cc1c(F)c(F)c(Oc2cc(S(=O)(=O)O)cc3cc(S(=O)(=O)O)ccc23)c(F)c1C#N` [Example 3FNS-1, Dicyanoperfluorotoluenesulfonic acid compound], the “Amount of dissolution in CHA” value is on record as 8.0 g.

These data come from patent publication US9082985B2, “Arylsulfonic acid compound and use thereof as electron-acceptor material” (NISSAN CHEMICAL INDUSTRIES, LTD., priority 2008, dated 2015).
